Values quoted from earlier work, collected in patent publication US20220333078A1, “Method for ex vivo expansion CD34+HSPCs into NK cells using an aryl hydrocarbon receptor antagonist” (Stichting Radboud universitair medisch centrum, priority 2015, published 2022).

Test system: CD34+UCB cells
Conditions: after 25 days of culture with IL-1β; cited from earlier work

In the case of “IL-1β: cytokine added at the beginning of CD34+UCB culture in the protocol of Ambrosini et al.”, the “overall percentage of CD56+NK cells expressing CD161, LFA1, NKG2A, NKp46, EOMES and perforin” value is given as less than 20%.
